Laboratory results reported in patent publication US9072734B2, “Quaternary ammonium salt compounds” (Teijin Pharma Limited, priority 2009, dated 2015).
Counter-ions that a name gives are not always drawn.

Test system: acetylcholine-induced bronchoconstriction in guinea pigs
Test: Effects on acetylcholine-induced bronchoconstriction in guinea pigs
Assay type: in vivo, guinea pig
Details: Cavia porcellus; 24 hours after 25 μg/kg of the compounds were administered; read-out: percentage of bronchoconstriction suppression with respect to the acetylcholine stimulation
Description: These in vivo assays are used to evaluate the bronchoprotective effects based on the M3 muscarinic receptor antagonist activity and the β2 adrenergic receptor agonist activity of test compounds. Hartley male guinea pigs (Nippon SLC, Inc.) weighing about 400-500 g were used. The animals were anesthetized by inhalation of Fluothane (Takeda Pharmaceutical Company Limited) in a plastic box. The test compounds were dissolved in physiological saline containing DMSO, and administered through the nasal cavity into the trachea at a dose of 0.04-25 μg/kg and at a volume of 0.4 mL/kg. For control animals, solvent without a test compound was administered. In general, animals awake several minutes after completion of the administration. The animals were anesthetized with an intraperitoneal administration of 33% urethane/0.8% α-chloralose at a dose of 3 mL/kg. In order to intravenously administer acetylcholine or histamine, a catheter was inserted into the carotid artery. In order to measure artificial respiration and airway ventilation pressure, a cannula was inserted into the trachea. Artificial respiration was applied to the animals at a volume of 10 mL/kg and at a frequency of 60/minute, using a ventilator (Harvard Apparatus). The airway ventilation pressure was measured by the Konzett-Roessler method using a general respiratory function analysis system (M.I.P.S). Prior to administration of acetylcholine or histamine, the airway ventilation pressure was measured and baseline values were recorded. Then, physiological saline was administered through the carotid artery catheter at a volume of 0.4 mL/kg, and the airway ventilation pressure was measured. Bronchoconstrictor response was induced by administering acetylcholine (40 μg/kg, 0.4 mL/kg) or histamine (15 μg/kg, 0.4 mL/kg) through the carotid artery catheter one hour after the administration of the test compounds, and the airway ventilation pressure at the maximum contractile response was recorded. In addition, in order to evaluate duration of action of the test compounds, the above-mentioned dose of acetylcholine or histamine was administered, 1 hour, 6 hours, 12 hours, 18 hours, and 24 hours after the administration of test compounds, and the airway ventilation pressure was measured in the same way. The percentage of suppression by the test compounds with respect to the airway contractile response was calculated according to the following formula. (%) Percentage of the airway constriction suppression=(Airway ventilation pressure of test compound-dosed and acetylcholine- or histamine-dosed animals−Baseline value)/(Airway ventilation pressure of acetylcholine- or histamine-dosed animals−Baseline value)×100
The 50% inhibitory doses (ID50 values) of the test compounds were analyzed by a sigmoidal logistic model using XLfit4 (IDBS, Ltd.) for the percentage of the bronchoconstriction suppression at different doses of the test compounds.

| Structure (SMILES) | inhibition in vivo at 0.025 mg/kg [%] |
| --- | --- |
| COc1cc(NC(=O)CCCCc2ccc(-c3ccccc3)c(NC(=O)OC3CC[N+](C)(C)CC3)c2)c(Cl)cc1CNC[C@H](O)c1ccc(O)c2[nH]c(=O)ccc12 [Example 51, 4-({[5-(4-{[2-chloro-4-({[(2R)-2-hydroxy-2-(8-hydroxy-2-oxo-1,2-dihydroquinolin-5-yl)ethyl]amino}methyl)-5-methoxyphenyl]carbamoyl}butyl)-2-phenylphenyl]carbamoyl}oxy)-1,1-dimethylpiperidin-1-ium trifluoroacetate] | ≥ 50 |
| C[N+]1(C)CCC(OC(=O)Nc2cc(CCC(=O)Nc3ccc(CNC[C@H](O)c4ccc(O)c5[nH]c(=O)ccc45)cc3)ccc2-c2ccccc2)CC1 [Example 1, 4-({[5-(2-{[4-({[(2R)-2-hydroxy-2-(8-hydroxy-2-oxo-1,2-dihydroquinolin-5-yl)ethyl]amino}methyl)phenyl]carbamoyl}ethyl)-2-phenylphenyl]carbamoyl}oxy)-1,1-dimethylpiperidin-1-ium trifluoroacetate] | ≥ 50 |
